# According to patent US9808528B2, “Protein-polymer-drug conjugates and methods of using same” (priority 2014, dated 2017):
# Several values for one entry are separate records, joined by “and”; a condition that tells them apart may be missing. Equal entries are not always repeated.
# Experiments:
# N87 = experiment: Cell viability assay (Cell Titer-Glo); assay type: cell-based; settings: 72 h incubation; AF-HPA as toxin equivalents
# Experimental: (§1) PBRM-polymer-drug conjugates were evaluated for their antiproliferation properties in tumor cell lines in vitro using Cell Titer-Glo (Promega Corp). Cells were plated in black walled 96-well plate and allowed to adhere overnight at 37° C. in a humidified atmosphere of 5% CO2. SKBR3, BT474, NCI-N87 cells (HER2 expressing cells), MCF7 cells (HER2 low expressing levels cells) and JIMT1 cells (HER2 medium expression level cells) were plated at a density of 5,000 cells per well. The next day the medium was replaced with 50 μL fresh medium and 50 μL of 2× stocks of PBRM-polymer-drug conjugate, drug polymer conjugate or drug were added to appropriate wells, mixed and incubated for 72 h. Cell Titer-Glo reagent was added to the wells at room temperature and the luminescent signal was measured after 10 min using a SpectraMax M5 plate reader (Molecular Devices). Dose response curves were generated using SoftMax Pro software. IC50 values were determined from four-parameter curve fitting.
# BT474 [1] = experiment: Cell viability assay (Cell Titer-Glo); assay type: cell-based, human; settings: 72 h incubation; AF-HPA as toxin equivalents
# Experimental: as §1
# MCF7 = experiment: Cell viability assay (Cell Titer-Glo); assay type: cell-based; settings: 72 h incubation; HER2 low expressing cells; AF-HPA as toxin equivalents
# Experimental: as §1
# hErbB2 = hErbB2 (Homo sapiens, UniProt P04626); experiment: Ligand binding studies by BIAcore surface plasmon resonance (SPR); settings: 25° C.; immobilized hErbB2; BioRad ProteOn XPR36
# Experimental: The kinetic binding of the PBRM-polymer-drug conjugate to an immobilized receptor is determined by BIAcore SPR. The binding constants for the PBRM in the PBRM-polymer-drug conjugate and PBRM alone can be determined using standard BIAcore procedures.
# The kinetic binding of the PBRM-polymer-drug conjugate to an immobilized receptor was determined by BIAcore SPR.
# JIMT1 = experiment: Cell viability assay (Cell Titer-Glo); assay type: cell-based; settings: 72 h incubation; HER2 medium expression level cells; AF-HPA as toxin equivalents
# Experimental: as §1
# JIMT-1 = settings: read-out: IC50 JIMT-1; HER2 molecules per cell 80,000; Her2 expression 2+; 72 hours or 6 days
# SKBR3 = experiment: Cell viability assay (Cell Titer-Glo); assay type: cell-based; settings: 72 h incubation; AF-HPA as toxin equivalents
# Experimental: as §1
# JIMT-1 cells = experiment: Tumor growth response, JIMT-1 xenograft; assay type: in vivo, mice
# Experimental: Female CB-17 SCID mice were inoculated subcutaneously with BT474 tumor fragments (n=10 for each group) or JIMT-1 cells (n=10 for each group) or NCI-N87 cells (n=10 for each group). […] Test compounds or vehicle were dosed IV as a single dose on day 1. Tumor size was measured at the times indicated in FIGS. 1 to 6 using digital calipers. Tumor volume was calculated and was used to determine the delay in tumor growth. Mice were sacrificed when tumors reached a size of 800 to 1500 mm^3. Tumor volumes are reported as the mean±SEM (“standard error of mean”) for each group.
# SKOV3 = experiment: Cytotoxicity assay (CellTiter-Glo); assay type: cell-based, human; settings: HER2 molecules per cell 220,000; Her2 expression 3+; 72 hours or 6 days
# Experimental: (§2) OVCAR3 (ovarian adenocarcinoma, not amplified, ATCC, Cat# HTB-161) was cultured in RPMI medium with 20% FBS. […] MKN-45 III (human gastric adenocarcinoma cell line, not amplified, DSMZ, Braunschweig, Germany, Cat.# ACC409) was cultured in RPMI-1640 Medium, (ATCC, Cat#30-2001). SKOV3 (human ovary adenocarcinoma cell line ATCC, Cat.# HTB-77), was cultured in McCoy's 5a Medium.
# (§3) For the cytotoxicity assay, cells were seeded at a density of 3000 cells per well in 96 well plates and allowed to attach during overnight incubation at 37° C. in the presence of 5% CO2.
# CALU3 = experiment: Cytotoxicity assay (CellTiter-Glo); assay type: cell-based, human; settings: HER2 molecules per cell 330,000; Her2 expression 3+; 72 hours or 6 days
# Experimental: (§4) NCI-H1581 (non-small cell lung carcinoma medium expressing cell line, not amplified, ATCC, Cat.# CRL-5878) cells were cultured in DMEM:F12 medium (ATCC, Cat#30-2006). […] CALU3 (human lung adenocarcinoma cell line, ATCC, Cat# HTB-55) was cultured in ATCC-formulated Eagle's Minimum Essential Medium. […] NCI-H2122 (human lung adenocarcinoma cell line, not amplified, ATCC, Cat# CRL-5985) was cultured in RPMI-1640 Medium, (ATCC, Cat#30-2001).
# as §3
# NCI-H1581 = experiment: Cytotoxicity assay (CellTiter-Glo); assay type: cell-based; settings: HER2 molecules per cell 13,000; Her2 expression 1+; 72 hours or 6 days
# Experimental: as §4, §3
# HCC38 = experiment: Cytotoxicity assay (CellTiter-Glo); assay type: cell-based, human; settings: HER2 molecules per cell 36,000; Her2 expression 2+; 72 hours or 6 days
# Experimental: (§5) ZR75-1 (human breast cancer cell line, not amplified, ATCC, Cat.# CRL-1500), was cultured in RPMI-1640 Medium. HCC1187 (human breast cancer cell line, not amplified, ATCC, Cat.# CRL-2322), was cultured in RPMI-1640 Medium. HCC38 (human breast cancer cell line, not amplified, ATCC, Cat.# CRL-2314), was cultured in RPMI-1640 Medium. T47D (human breast cancer cell line, not amplified, ATCC, Cat.# HTB-133), was cultured in RPMI-1640 Medium. MDA-MB-231 (human breast cancer cell line, not amplified, ATCC, Cat.# HTB-26), was cultured in DMEM Medium.
# as §3
# TOV21G = experiment: Cytotoxicity assay (CellTiter-Glo); assay type: cell-based, human; settings: HER2 molecules per cell 12,000; Her2 expression 1+; 72 hours or 6 days
# Experimental: as §2, §3
# NCI-H460 = experiment: Cytotoxicity assay (CellTiter-Glo); assay type: cell-based, human; settings: HER2 molecules per cell 4,000; Her2 expression 1+; 72 hours or 6 days
# Experimental: (§6) A549 (human lung carcinoma cell line, not amplified, ATCC, Cat# CCL-185) was cultured in F12K Medium. […] NCI-H460 (human lung carcinoma cell line, not amplified, ATCC, Cat.# HTB-177) was cultured in RPMI-1640 Medium, (ATCC, Cat.#30-2001). SHP-77 (human small cell lung cancer cell line, not amplified, ATCC, Cat.# CRL-2195) was cultured in RPMI-1640 Medium, (ATCC, Cat#30-2001).
# as §3
# NCI-H2122 = experiment: Cytotoxicity assay (CellTiter-Glo); assay type: cell-based, human; settings: HER2 molecules per cell 12,000; Her2 expression 1+; 72 hours or 6 days
# Experimental: as §4, §3
# HCC1187 = experiment: Cytotoxicity assay (CellTiter-Glo); assay type: cell-based, human; settings: HER2 molecules per cell 38,000; Her2 expression 2+; 72 hours or 6 days
# Experimental: as §5, §3
# MDA-MB-175VII = experiment: Cytotoxicity assay (CellTiter-Glo); assay type: cell-based, human; settings: read-out: IC50 MDA-MB-175VII; HER2 molecules per cell 51,000; Her2 expression 1+; 72 hours or 6 days
# Experimental: (§7) MDA-MB-175-VII (human breast cancer cell line, not amplified, ATCC, Cat.# HTB-25), was cultured in Leibovitz's L-15 Medium with 20% FBS. CAMA-1 (human breast cancer cell line, not amplified, ATCC, Cat.# HTB-21), was cultured in 90% ATCC-formulated Eagle's Minimum Essential Medium.
# as §3
# MDA-MB-453 = experiment: Cytotoxicity assay (CellTiter-Glo); assay type: cell-based; settings: HER2 molecules per cell 125,000; Her2 expression 2+; 72 hours or 6 days
# SNU5 = experiment: Cytotoxicity assay (CellTiter-Glo); assay type: cell-based; settings: HER2 molecules per cell 22,000; Her2 expression 1+; 72 hours or 6 days
# Experimental: as §6, §3
# NCI-H2170 = experiment: Cytotoxicity assay (CellTiter-Glo); assay type: cell-based; settings: HER2 molecules per cell 660,000; Her2 expression 3+; 72 hours or 6 days
# Experimental: as §4, §3
# A549 = experiment: Cytotoxicity assay (CellTiter-Glo); assay type: cell-based, human; settings: HER2 molecules per cell 6,000; Her2 expression 1+; 72 hours or 6 days
# Experimental: as §6, §3
# BT474 [2] = experiment: Cytotoxicity assay (CellTiter-Glo); assay type: cell-based, human; settings: HER2 molecules per cell 860,000; Her2 expression 3+; 72 hours or 6 days
# Experimental: as §2, §3
# T47D = experiment: Cytotoxicity assay (CellTiter-Glo); assay type: cell-based, human; settings: HER2 molecules per cell 20,000; Her2 expression 1+; 72 hours or 6 days
# Experimental: as §5, §3
# ZR75-1 = experiment: Cytotoxicity assay (CellTiter-Glo); assay type: cell-based, human; settings: HER2 molecules per cell 40,000; Her2 expression 1+; 72 hours or 6 days
# Experimental: as §5, §3
# KATOIII = experiment: Cytotoxicity assay (CellTiter-Glo); assay type: cell-based, human; settings: HER2 molecules per cell 19,000; Her2 expression 1+; 72 hours or 6 days
# Experimental: as §6, §3
# MDA-MB-361 = experiment: Cytotoxicity assay (CellTiter-Glo); assay type: cell-based, human; settings: HER2 molecules per cell 135,000; Her2 expression 2+; 72 hours or 6 days
# Experimental: as §7, §3
# NCI-H522 = experiment: Cytotoxicity assay (CellTiter-Glo); assay type: cell-based; settings: HER2 molecules per cell 25,000; Her2 expression 1+; 72 hours or 6 days
# Experimental: as §4, §3
# SHP-77 = experiment: Cytotoxicity assay (CellTiter-Glo); assay type: cell-based, human; settings: HER2 molecules per cell 0; 72 hours or 6 days
# Experimental: as §6, §3
# OVCAR3 = experiment: Cytotoxicity assay (CellTiter-Glo); assay type: cell-based; settings: HER2 molecules per cell 7,200; Her2 expression 1+; 72 hours or 6 days
# Experimental: as §2, §3
# MDA-MB-231 = experiment: Cytotoxicity assay (CellTiter-Glo); assay type: cell-based, human; settings: HER2 molecules per cell 5400; Her2 expression 1+; 72 hours or 6 days
# Experimental: as §5, §3
# CAMA-1 = experiment: Cytotoxicity assay (CellTiter-Glo); assay type: cell-based, human; settings: HER2 molecules per cell 50,000; Her2 expression 1+; 72 hours or 6 days
# Experimental: as §7, §3
# MKN45 = experiment: Cytotoxicity assay (CellTiter-Glo); assay type: cell-based, human; settings: HER2 molecules per cell 16,000; Her2 expression 1+; 72 hours or 6 days
# Experimental: as §2, §3
# NCI-N87 = experiment: Cytotoxicity assay (CellTiter-Glo); assay type: cell-based; settings: HER2 molecules per cell 700,000; Her2 expression 3+; 72 hours or 6 days
# Experimental: as §3
# HL-60 cells = experiment: Tumor growth response, HL-60 xenograft; assay type: in vivo, mice; settings: single IV dose day 1; 20 mg/kg
# Experimental: Female NCr nu/nu mice were inoculated subcutaneously with HL-60 cells (n=10 for each group). Test compounds or vehicle were dosed IV as a single dose on day 1. Tumor size was measured at the times indicated in FIGS. 1 to 6 using digital calipers. Tumor volume was calculated and was used to determine the delay in tumor growth. Mice were sacrificed when tumors reached a size of 800 to 1500 mm^3. Tumor volumes are reported as the mean±SEM (“standard error of mean”) for each group.
# Female NCr nu/nu mice were inoculated subcutaneously with HL-60 cells (n=10 for each group). Test compounds or vehicle were dosed IV as a single dose on day 1. Tumor size was measured at the times indicated in FIG. 3 using digital calipers. Tumor volume was calculated and was used to determine the delay in tumor growth. Mice were sacrificed when tumors reached a size of 2000 mm^3. Tumor volumes are reported as the mean±SEM for each group.
substance,measurement,setting,value
Trastuzumab-((EG2-MI (2%)-(10 kDa PHF-BA (28%)-(AF-HPA-Ala (9%) [Example 17],IC50,N87,0.43 nM
same,IC50,BT474 [1],0.03 nM
same,IC50,MCF7,28.8 nM
same,ka (association or affinity rate constant),hErbB2,8.30 ± 0.2 × 10^5 M^−1s^−1
same,kd (dissociation rate constant),hErbB2,2.32 ± 0.2 × 10^−5 s^−1
same,IC50,JIMT1,0.06 nM
same,IC50,JIMT-1,0.3 nM
same,IC50,SKBR3,0.03 nM
Trastuzumab-((EG2-MI (2%)-(10 kDa PHF-BA (28%)-(AF-HPA-Ala (9%) [Example 18A],IC50,N87,0.06 nM
same,IC50,BT474 [1],0.04 nM
same,IC50,MCF7,9.6 nM
same,ka (association or affinity rate constant),hErbB2,4.67 ± 0.7 × 10^5 M^−1s^−1
same,kd (dissociation rate constant),hErbB2,2.07 ± 0.2 × 10^−5 s^−1
same,IC50,JIMT1,0.16 nM
same,IC50,SKBR3,0.02 nM
Trastuzumab-((EG2-MI (2%)-(10 kDa PHF-BA (28%)-(AF-HPA-Ala (9%) [Example 18B],IC50,N87,0.04 nM
same,IC50,BT474 [1],0.05 nM
same,IC50,MCF7,33 nM
same,ka (association or affinity rate constant),hErbB2,3.05 ± 0.2 × 10^5 M^−1s^−1
same,kd (dissociation rate constant),hErbB2,2.46 ± 0.1 × 10^−5 s^−1
same,IC50,JIMT1,0.12 nM
same,IC50,SKBR3,0.01 nM
Trastuzumab-((EG2-MI (2%)-(10 kDa PHF-BA (28%)-(AF-HPA-Ala (9%) [Example 18C],IC50,N87,0.06 nM
same,IC50,BT474 [1],0.03 nM
same,IC50,MCF7,3.8 nM
same,ka (association or affinity rate constant),hErbB2,4.25 ± 0.5 × 10^5 M^−1s^−1
same,kd (dissociation rate constant),hErbB2,2.03 ± 0.1 × 10^−5 s^−1
same,IC50,JIMT1,0.18 nM
same,IC50,SKBR3,0.02 nM
Trastuzumab-((EG2-MI (2.5%)-(10 kDa PHF-BA (28%)-(AF-HPA-Ala (8.4%) [Example 10],"regressions, FIG. 4B",JIMT-1 cells; 2.0 mg/kg single IV dose,100%
same,"tumor free survival at the end of the study, FIG. 4B",JIMT-1 cells; 2.0 mg/kg single IV dose,all of which remained tumor free survival
same,"tumor volume response (in words), FIG. 4B","JIMT-1 cells; 2 mg/kg single dose or […] weekly for 3 weeks, IV",reduction of tumor volume
ado-trastuzumab emtansine [Kadcyla],IC50,SKOV3,5.6 nM
same,IC50,CALU3,> 100 nM
same,IC50,NCI-H1581,~100 nM
same,IC50,HCC38,> 100 nM
same,IC50,TOV21G,> 100 nM
same,IC50,NCI-H460,68 nM
same,IC50,NCI-H2122,19 nM
same,IC50,HCC1187,30 nM
same,IC50,MDA-MB-175VII,1.2 nM
same,IC50,MDA-MB-453,~100 nM
same,IC50,N87,0.09 nM
same,IC50,SNU5,~100 nM
same,IC50,NCI-H2170,0.4 nM
same,IC50,A549,> 100 nM
same,IC50,BT474 [1],2.4 nM
same,IC50,BT474 [2],1.3 nM
same,IC50,T47D,82.3 nM
same,IC50,ZR75-1,> 100 nM
same,IC50,KATOIII,> 100 nM
same,IC50,MDA-MB-361,0.27 nM and 0.33 nM
same,"tumor volume response (in words), FIG. 4A","JIMT-1 cells; single IV dose day 1, Example 14 at 2, 0.67 and 0.3 mg/kg, trastuzumab 20 mg/kg, Kadcyla 20 mg/kg",increase of tumor volume
same,"tumor volume response (in words), FIG. 2","JIMT-1 cells; single IV dose day 1, conjugates […], trastuzumab 10 mg/kg, Kadcyla 10 mg/kg",increase of tumor volume
same,IC50,NCI-H522,~100 nM
same,IC50,SHP-77,> 100 nM
same,IC50,OVCAR3,~85 nM
same,IC50,MDA-MB-231,27 nM
same,IC50,MCF7,38.6 nM
same,ka (association or affinity rate constant),hErbB2,4.61 ± 0.2 × 10^5 M^−1s^−1
same,kd (dissociation rate constant),hErbB2,3.17 ± 0.9 × 10^−5 s^−1
same,IC50,CAMA-1,7.8 nM
same,IC50,MKN45,> 100 nM
same,IC50,NCI-N87,0.3 nM
same,IC50,JIMT1,18 nM
same,IC50,JIMT-1,17.5 nM
same,IC50,SKBR3,0.23 nM
lintuzumab,"tumor volume response (in words), FIG. 3",HL-60 cells,increase of tumor volume
